In publication PMC6214572, “Carboxypeptidase O is a lipid droplet-associated enzyme able to cleave both acidic and polar C-terminal amino acids” (PLoS ONE, 2018):

Target: T1, Carboxypeptidase O (CPO) (Homo sapiens, UniProt Q8IVL8, W297L)
T1 construct: full-length GPI-anchored enzyme without prodomain, (plasmid pcDNA-CPO in HEK293T); Triton X-100 cell lysate
T1 sequence (Q8IVL8 21-352 W297L): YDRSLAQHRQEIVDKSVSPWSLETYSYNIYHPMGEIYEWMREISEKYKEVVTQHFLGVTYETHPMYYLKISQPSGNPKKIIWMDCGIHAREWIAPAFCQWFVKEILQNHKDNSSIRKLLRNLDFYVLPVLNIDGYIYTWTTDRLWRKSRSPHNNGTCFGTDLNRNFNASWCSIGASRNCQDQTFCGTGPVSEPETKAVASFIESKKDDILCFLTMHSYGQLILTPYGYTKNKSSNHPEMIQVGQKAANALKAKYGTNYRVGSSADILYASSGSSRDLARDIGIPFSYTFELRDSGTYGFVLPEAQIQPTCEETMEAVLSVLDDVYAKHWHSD
Assay: absorbance decrease at […] nm after […] min
Type: biochemical
Settings: lysate of transfected HEK293T cells; 0.5 mM FA-EE, 37°C; inactive mutant

O=C(O)CC[C@H](NC(=O)[C@H](CCC(=O)O)NC(=O)C=Cc1ccco1)C(=O)O [FA-Glu-Glu]
no enzymatic activity: The W297L CPO mutant exhibits no enzymatic activity, although fully expressed
